Measured values published in patent US8415342B2, “Besifloxacin ophthalmic composition for the treatment or control of infection” (Bausch & Lomb Incorporated, priority 2008, dated 2013).
Converted amounts (≈) assume the structure as drawn. Where two headings read alike, the source gives them in different places.

What was measured:
[1] = tested on: S. pneumoniae topoisomerase mutants; assay: MIC against defined topoisomerase mutants; format: cell-based; details: Streptococcus pneumoniae
[2] = tested on: Pathogens Associated With Bacterial Conjunctivitis; assay: Integrated besifloxacin MIC data from preclinical (nonclinical) studies (Table 8); format: cell-based
[3] = Clostridium perfringens, N 21, agar dilution

Compound `N[C@@H]1CCCCN(c2c(F)cc3c(=O)c(C(=O)O)cn(C4CC4)c3c2Cl)C1` [Besifloxacin, (R)-(+)-(3-amino-2,3,4,5,6,7-hexahydro-1H-azepin-1-yl)-8-chloro-1-cyclopropyl-6-fluoro-1,4,-dihydro-4-oxo-3-quinolinecarboxylic acid] has an MIC ([1]; S. pneumoniae Wild type) of 0.12 µg/mL (≈ 0.305 µM), an MIC ([1]; S. pneumoniae gyrA S81F) of 0.5 µg/mL (≈ 1.27 µM) and an MIC ([1]; S. pneumoniae parC S79Y) of 0.25 µg/mL (≈ 0.635 µM). For the same compound, the MIC ([1]; S. pneumoniae parC S79Y + gyrA S81F) was 1 µg/mL, the MIC50 ([2]; Acinetobacter baumannii, Acinetobacter baumanii Quinolone-R, N 5, read-out: MIC50) was greater than 8 µg/mL and the MIC50 ([2]; Acinetobacter baumannii, Acinetobacter baumanii Quinolone-S, N 43, read-out: MIC50) was 0.5 µg/mL (≈ 1.27 µM). For the same compound, the MIC90 ([2]; Acinetobacter baumannii, Acinetobacter baumanii Quinolone-S, N 43, read-out: MIC90) was 2 µg/mL (≈ 5.08 µM), the MIC50 ([2]; Acinetobacter baumannii-calcoaceticus Quinolone-R, N 10, read-out: MIC50) was greater than 8 µg/mL and the MIC90 ([2]; Acinetobacter baumannii-calcoaceticus Quinolone-R, N 10, read-out: MIC90) was greater than 8 µg/mL. The “MIC Range” value ([2]; Acinetobacter baumannii-calcoaceticus Quinolone-S, N 23) was 0.12 to 4 µg/mL, the MIC50 ([2]; Acinetobacter baumannii-calcoaceticus Quinolone-S, N 23, read-out: MIC50) was 0.5 µg/mL (≈ 1.27 µM) and the “MIC Range” value ([2]; Acinetobacter lwoffii, N 13) was 0.12 to 2 µg/mL. For the same compound, the MIC50 ([2]; Acinetobacter lwoffii, N 13, read-out: MIC50) was 0.5 µg/mL (≈ 1.27 µM), the MIC90 ([2]; Acinetobacter lwoffii, N 13, read-out: MIC90) was 0.5 µg/mL (≈ 1.27 µM) and the MIC50 ([2]; Bacteroides fragilis, N 20, agar dilution, read-out: MIC50) was 0.5 µg/mL (≈ 1.27 µM). The MIC90 ([2]; Bacteroides fragilis, N 20, agar dilution, read-out: MIC90) was 1 µg/mL (≈ 2.54 µM), the “MIC Range” value ([2]; Citrobacter koser Quinolone-R, N 1) was greater than 8 µg/mL and the “MIC Range” value ([2]; Citrobacter koser Quinolone-S, N 99) was 0.03 to 4 µg/mL. It also gave an MIC90 ([2]; Citrobacter koser Quinolone-S, N 99, read-out: MIC90) of 0.25 µg/mL (≈ 0.635 µM), an MIC50 [2, 3] of 0.25 µg/mL (≈ 0.635 µM) and an MIC90 [2, 3] of 0.25 µg/mL (≈ 0.635 µM). The “MIC Range” value [2, 3] was 0.12 to 0.25 µg/mL, the “MIC Range” value ([2]; Corynebacterium species, N 30, agar dilution) was “≦0.06-2 μg/mL” and the MIC50 ([2]; Corynebacterium species, N 30, agar dilution, read-out: MIC50) was 0.25 µg/mL (≈ 0.635 µM). The MIC90 ([2]; Corynebacterium species, N 30, agar dilution, read-out: MIC90) was 2 µg/mL (≈ 5.08 µM), the MIC50 ([2]; Cutibacterium acnes, Propionibacterium acnes, N 21, agar dilution, read-out: MIC50) was 0.25 µg/mL (≈ 0.635 µM) and the MIC90 ([2]; Cutibacterium acnes, Propionibacterium acnes, N 21, agar dilution, read-out: MIC90) was 0.25 µg/mL (≈ 0.635 µM). For the same compound, the “MIC Range” value ([2]; Enterobacter aerogene Quinolone-S, N 37) was 0.12 to 4 µg/mL, the MIC50 ([2]; Enterobacter aerogene Quinolone-S, N 37, read-out: MIC50) was 0.25 µg/mL (≈ 0.635 µM) and the MIC90 ([2]; Enterobacter aerogene Quinolone-S, N 37, read-out: MIC90) was 2 µg/mL (≈ 5.08 µM). For the same compound, the “MIC Range” value ([2]; Enterobacter cloacae Quinolone-R, N 1) was greater than 8 µg/mL, the “MIC Range” value ([2]; Enterobacter cloacae Quinolone-S, N 58) was 0.12 to 2 µg/mL and the MIC50 ([2]; Enterobacter cloacae, Enterobacter cloacae Quinolone-S, N 58, read-out: MIC50) was 0.25 µg/mL (≈ 0.635 µM). For the same compound, the MIC90 ([2]; Enterobacter cloacae, Enterobacter cloacae Quinolone-S, N 58, read-out: MIC90) was 0.5 µg/mL (≈ 1.27 µM), the “MIC Range” value ([2]; Fusobacterium species, N 21, agar dilution) was 0.12 to 8 µg/mL and the MIC50 ([2]; Fusobacterium species, N 21, agar dilution, read-out: MIC50) was 0.25 µg/mL (≈ 0.635 µM). For the same compound, the MIC90 ([2]; H. influenzae, value used for PK/PD ratios of Study 424) was “^bMIC90: H. influenzae ≦0.06 μg/mL”, the “MIC Range” value ([2]; Haemophilus influenzae (all phenotypes), N 243) was “≦0.004-0.25 μg/mL” and the “MIC Range” value ([2]; Haemophilus influenzae β-lactamase+, N 118) was 0.008 to 0.12 µg/mL. For the same compound, the “MIC Range” value ([2]; Haemophilus influenzae β-lactamase−, N 100) was “≦0.004-0.12 μg/mL”, the MIC90 ([2]; Haemophilus influenzae, H. influenzae, value used for PK/PD ratios of Study 424, read-out: MIC90) was no more than 0.06 µg/mL and the MIC50 ([2]; Haemophilus influenzae, Haemophilus influenzae (all phenotypes), N 243, read-out: MIC50) was 0.03 µg/mL (≈ 0.0762 µM). The MIC50 ([2]; Haemophilus influenzae, Haemophilus influenzae β-lactamase+, N 118, read-out: MIC50) was 0.03 µg/mL (≈ 0.0762 µM), the MIC50 ([2]; Haemophilus influenzae, Haemophilus influenzae β-lactamase− Ampicillin-R, N 25, read-out: MIC50) was 0.12 µg/mL (≈ 0.305 µM) and the MIC90 ([2]; Haemophilus influenzae, Haemophilus influenzae β-lactamase− Ampicillin-R, N 25, read-out: MIC90) was 0.25 µg/mL (≈ 0.635 µM). The MIC50 ([2]; Haemophilus influenzae, Haemophilus influenzae β-lactamase−, N 100, read-out: MIC50) was 0.03 µg/mL (≈ 0.0762 µM), the “MIC Range” value ([2]; Key Organisms Quinolone-S, N 894) was “≦0.004-1 μg/mL” and the MIC50 ([2]; Key Organisms Quinolone-S, N 894, read-out: MIC50) was 0.06 µg/mL (≈ 0.152 µM). It also gave an MIC90 ([2]; Key Organisms Quinolone-S, N 894, read-out: MIC90) of 0.12 µg/mL (≈ 0.305 µM), an MIC50 ([2]; Key Organisms combined, N 1205) of 0.06 µg/mL and an MIC90 ([2]; Key Organisms combined, N 1205, read-out: MIC90) of 1 µg/mL. For the same compound, the “MIC Range” value ([2]; Klebsiella oxytoca Quinolone-R, N 5) was 1 to 8 µg/mL, the MIC50 ([2]; Klebsiella oxytoca Quinolone-R, N 5, read-out: MIC50) was 8 µg/mL (≈ 20.3 µM) and the “MIC Range” value ([2]; Klebsiella oxytoca Quinolone-S, N 45) was 0.06 to 1 µg/mL. The MIC90 ([2]; Klebsiella oxytoca, Klebsiella oxytoca Quinolone-S, N 45, read-out: MIC90) was 0.5 µg/mL (≈ 1.27 µM), the MIC50 ([2]; Legionella pneumophila, N 50) was 0.03 µg/mL (≈ 0.0762 µM) and the MIC90 ([2]; Legionella pneumophila, N 50) was 0.03 µg/mL (≈ 0.0762 µM). For the same compound, the “MIC Range” value ([2]; Legionella pneumophila, N 50) was 0.015 to 0.06 µg/mL, the MIC50 ([2]; Moraxella catarrhalis, N 201, read-out: MIC50) was 0.06 µg/mL (≈ 0.152 µM) and the MIC90 ([2]; Moraxella catarrhalis, N 201, read-out: MIC90) was 0.12 µg/mL (≈ 0.305 µM). For the same compound, the “MIC Range” value ([2]; Moraxella species, N 30, agar dilution) was “≦0.06-0.13 μg/mL” and the MIC50 ([2]; Moraxella species, N 30, agar dilution, read-out: MIC50) was no more than 0.06 µg/mL.
